The conditions of data set [1]: highest serum concentration reached after the maximum therapeutic dose in-vivo; cited from earlier work.
The subject of the next data set is Staphylococcus aureus. In words: Agar Dilution Method of Sensitivity testing, NE alone and NE + antibiotic. It is filed as cell-based. As to conditions: resistant S. aureus cultures, 48 hours. On the procedure:
(§1) Two kinds of investigations were carried-out using these bacterial isolates—using an Agar Dilution Method of Sensitivity testing.
i) To ascertain whether, NE can work as an antibacterial substance on its own. For this purpose, a stock-solution of NE was prepared and was sterilized as described in the preliminary experiments.
ii) This stock-solution was dispensed into the culture medium (Mueller Hinton Agar) so as to provide while; the medium was in liquid form. Four different concentrations of NE, viz.
iii) This medium was poured into petri dishes and allowed to solidify. Resistant cultures were inoculated on to these plates and after incubation for 48 hours, the growth patterns were assessed.
iv) The experiments were run in triplicate, for each concentration—as per standard practices of microbiological testing procedures.
(§2) i) The culture medium (Mueller Hinton Agar) was melted and distributed into a number of test tubes.
(§3) ii) The stock solution of NE was dispensed into these test tubes in four different concentrations viz.
(§4) iii) In the same medium, one of the antibiotics under investigation was also added so as to provide a variable concentration (at break-even point concentration) as described below:
(§5) iv) The culture medium containing NE extract+the antibiotic were poured into petri dishes and allowed to solidify.
(§6) v) The resistant bacterial strains were inoculated onto these plates, incubated for 48 hours and the growth patterns were studied on each plate.
These cultures were obtained various clinical samples, such as sputum, non-healing infected wounds, throat swabs etc.

In a further data set the test system is Pseudomonas aerugenosa. In words: Agar Dilution Method of Sensitivity testing, NE + antibiotic. As to conditions: for Growth Patterns after addition of NE: no. of cultures +++ (growth) / Growth Patterns after addition of NE: no. of cultures −−− (inhibition of growth): 16 resistant Pseudomonas strains, 48 hours. It counts as cell-based. On the procedure: as §1, §2, §3, §4, §5, §6
In general terms: In agar dilution, organisms are placed on agar that contains the substance at set levels.

For data set [2], the system named is Klebsiella pneumoniae. The experiment in a line: Broth Macro Dilution Test, MIC and MBC. It counts as cell-based. As to conditions: antibiotic alone. From the text:
(§7) This was done by estimation of the Minimum Inhibitory Concentration (MIC) and Minimum Bactericidal Concentration (MBC) on the selected isolates by a Broth Macro Dilution Test.
(§8) While conducting these tests, the guidelines given by the National committee of Clinical Laboratory Standards 1995 protocols were employed. Cation Supplemented Mueller Hinton Broth was used as medium for all organisms excepting for β haemolytic streptococci for which, Todd Hewit's Broth was used as medium.
(§9) The following concentrations of antibiotics were tested to determine MIC and MBC.
(§10) Co-trimoxazole (Sulpharnethoxazole/Trimethoprim/μg/μg per ml)
(§11) A minimum inhibitory concentration is the lowest level of antibiotic needed to cause an inhibition to bacterial growth in culture medium whereas, the minimum bactericidal concentration is the lowest concentration of antibiotic to achieve a 100% killing of bacteria. Thus, these two values are the practical indices of intensity of bacterial resistance to a given antibiotic. On the other hand, a break-even point of any antibiotic indicates the attainable blood levels after an administration of full dose, in human/animal body. Thus, this point indicates the practical dosage of administering any given antibiotic effectively and beyond this point, even if an antibiotic is found to act effectively in experimental situation—such dose cannot be administered in a clinical situation.

The subject of data set [3] is Salmonella senftenberg. In words: Broth Macro Dilution Test, MIC and MBC. As to conditions: Example 13: strain from burn wound swab culture; antibiotic alone. It is filed as cell-based.
Text: as §7, §8, §9, §10, §11

Data set [4] relates to Klebsiella pneumoniae. The experiment in a line: Broth tube test of NE with antibiotic at break point, percentage of killing. It is filed as cell-based. On the procedure:
(§12) Since all the study isolates are resistant to the concerned antibiotics, each antibiotic is taken at its breakpoint concentration, (the highest serum concentration of that particular antibiotic reached after the maximum therapeutic dose in-vivo). The break points for various antibiotics are as follows:
(§13) Preparation of Neem Extract: Stock solution of neem extract (1 mg/ml) was prepared, filtered and autoclaved. It was used in 4 concentrations—1000 μg/ml; 500 μg/ml; 250 μg/ml; 125 μg/ml.
(§14) A set of four tubes with variable concentrations of the extract is prepared and to each of these tubes, the break point concentration of antibiotics is added. Now, these sets are inoculated with the study isolate in the same manner as per the broth dilution procedure. A set of six controls is inoculated with each isolate—in parallel with the main experiment.
(§15) 2. Only antibiotic solution
(§16) 3. Medium and antibiotic solution with inoculum
(§17) 5. Only Neem extract at 250 μg/ml
(§18) 6. Medium with Neem Extract and inoculum
(§19) Reading the test All the tests and control tubes are observed for visible turbidity of growth first. Since all the study isolates were earlier confirmed to be resistant to the antibiotics, the bacterial growth is expected at the breakpoint concentration of the antibiotic. Any reduction in the turbidity as compared to the control tube no. 3 is noted as a possible additive or synergistic effect of the neem extract with the antibiotic. In absence of such effect, the tubes may show growth matching with the control no. 4.
(§20) In case of a positive result, further sub-culturing was taken up, on solid media for colony counts with a calibrated loop. The colony counts could be noted by a semi quantitative method as 101 to 10^5 CFU/ml (Colony forming units). This is finally expressed as the percentage of killing as compared to the colony count obtained with control no. 4. Usually control tubes no. 3, 4 and 6 had similar colony counts.

Data set [5] deals with Salmonella senftenberg. Described as above. It counts as cell-based. As to conditions: Example 13 strain; antibiotic in combination with NE, uniform in all four concentrations. As for the experimental part: as §12, §13, §14, §15, §16, §17, §18, §19, §20
Setting [6] is: antibiotic at break-even point + NE 125 μg/mL.
Setting [7] is: antibiotic at break-even point + NE 250 μg/mL.
[8] abbreviates: antibiotic at break-even point + NE 500 μg/mL.
[9] abbreviates: antibiotic at break-even point + NE 1000 μg/mL.
[10] abbreviates: Example 3: strain from non-healing burn wound.
Setting [11] is: Example 4: strain from wound swab culture.

On to `CC1(C)S[C@@H]2[C@H](NC(=O)[C@H](N)c3ccc(O)cc3)C(=O)N2[C@H]1C(=O)O` [Amoxacillin], for which, in data set [1], the break point is 16 µg/mL.

Regarding `CC1=C(C(=O)O)N2C(=O)[C@@H](NC(=O)[C@H](N)c3ccccc3)[C@H]2SC1` [Cephalexin], the “Growth Patterns after addition of NE: no. of cultures +++ (growth)” value (shortened to “Growth Patterns … no. of cultures +++ (growth)”) in the data set on Staphylococcus aureus (setting [6]), with Staphylococcus aureus (setting [7]), with Staphylococcus aureus (setting [8]) and with Staphylococcus aureus (setting [9]) was 81 in each case. For the same molecule, the “Growth Patterns after addition of NE: no. of cultures −−− (inhibition of growth)” value with Staphylococcus aureus (setting [6]), with Staphylococcus aureus (setting [7]), with Staphylococcus aureus (setting [8]) and in the data set on Staphylococcus aureus (setting [9]) was 21 throughout. In data set [1], the break point was 18 µg/mL.

For `CCN1CCN(C(=O)N[C@@H](C(=O)N[C@@H]2C(=O)N3[C@@H]2SC(C)(C)[C@@H]3C(=O)O)c2ccccc2)C(=O)C1=O` [Piperacillin], the “Growth Patterns … no. of cultures +++ (growth)” value in the data set with Pseudomonas aerugenosa (setting [6]), with Pseudomonas aerugenosa (setting [7]), with Pseudomonas aerugenosa (setting [8]) and in the data set on Pseudomonas aerugenosa (setting [9]) was 3 throughout. Besides, the “Growth Patterns after addition of NE: no. of cultures −−− (inhibition of growth)” value in the data set with Pseudomonas aerugenosa (setting [6]), in the data set on Pseudomonas aerugenosa (setting [7]), in the data set with Pseudomonas aerugenosa (setting [8]) and in the data set with Pseudomonas aerugenosa (setting [9]) was 13 each time. The “isolates sensitized to the antibiotic by NE” value in the data set with Pseudomonas aerugenosa (of 16 resistant strains, NE + antibiotic) turned out to be 13.

For the molecule Co-trimoxazole, the MBC in the data set with Klebsiella pneumoniae [2] (setting [10]) is > 16/304; in the data set on Klebsiella pneumoniae [2] (setting [11]), 16/304; with Salmonella senftenberg [3] it was 16/304. Besides, the MIC with Klebsiella pneumoniae [2] (setting [10]), with Klebsiella pneumoniae [2] (setting [11]) and in the data set with Salmonella senftenberg [3] was 8/152 in each case. Also, the killing in the data set with Klebsiella pneumoniae [4] (Example 3 strain, antibiotic at break point in combination with NE, uniform at 1000, 500, 250, 125 μg/ml) turned out to be 50%; with Klebsiella pneumoniae [4] (Example 4 strain, antibiotic at break-even concentration with NE, uniform at all four NE concentrations), 90%; in the data set on Salmonella senftenberg [5], 60%.

As to Gentamicin, the “Growth Patterns … no. of cultures +++ (growth)” value in the data set on Staphylococcus aureus (setting [6]) is reported as 89; in the data set on Staphylococcus aureus (setting [7]), 88; with Staphylococcus aureus (setting [8]), 88; with Staphylococcus aureus (setting [9]), 88. The “Growth Patterns after addition of NE: no. of cultures −−− (inhibition of growth)” value is listed as 13 in the data set on Staphylococcus aureus (setting [6]), 14 with Staphylococcus aureus (setting [7]), 14 with Staphylococcus aureus (setting [8]) and 14 in the data set with Staphylococcus aureus (setting [9]).

The record behind these values is patent publication US6599541B1, “Composition for treatment of drug resistant bacterial infections and a method of treating drug resistant bacterial infections” (priority 1999, dated 2003).
